Assay [1] concerns the target T1, human progesterone receptor (PR) (Homo sapiens, UniProt P06401).
T1 sequence (P06401 636-933 limits assumed): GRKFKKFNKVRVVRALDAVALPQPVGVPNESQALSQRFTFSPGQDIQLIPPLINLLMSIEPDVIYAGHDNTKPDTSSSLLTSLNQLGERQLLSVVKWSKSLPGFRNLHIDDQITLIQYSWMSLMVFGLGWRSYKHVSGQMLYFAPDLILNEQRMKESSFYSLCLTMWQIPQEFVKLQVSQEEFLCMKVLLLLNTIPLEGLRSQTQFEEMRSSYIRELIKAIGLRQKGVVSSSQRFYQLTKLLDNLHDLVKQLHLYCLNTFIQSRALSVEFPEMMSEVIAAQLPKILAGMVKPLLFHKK
Briefly: Human PR radioligand binding (3H-progesterone, T47D cells). The following applies: read-out: inhibition of 3H-progesterone binding; footnote: at 10 µM. The method, then:
Scintillation counting of bound radioligand was conducted after 6 and 20 h of incubation (at 4°C), respectively. […] Scintillation counting of bound radioligand was conducted after 20 h of incubation at 4°C.
The same statistical methods were used for the MR binding assays, but using MathIQ™ software (ID Business Solutions Ltd., Woking, United Kingdom).
Percent inhibition of control specific binding was calculated as follows: […]
The half-maximal inhibitory concentration (IC50; i.e., the concentration causing a half-maximal inhibition of control specific binding) and Hill coefficients (nH) were determined by non-linear regression analysis of the competition curves generated with mean replicate values using the following Hill equation curve fitting: Y=D+ A-D1+ C/C50nH , where Y = specific binding, A = left asymptote of the curve, D = right asymptote of the curve, C = compound concentration, C50 = IC50, and nH = slope factor.
The inhibition constants (Ki) were calculated using the Cheng Prusoff equation:
where L = concentration of radioligand employed in the assay, and KD = affinity of the radioligand for the receptor (a Scatchard plot was used to determine the KD) (Cheng and Prusoff, 1973).

The target in assay [2] is T2, human MR (Homo sapiens, UniProt P08235).
T2 construct: host or cells: CHO (DSMZ ACC-110), CHO-Gal4/MR
T2 sequence (P08235 726-964 limits assumed): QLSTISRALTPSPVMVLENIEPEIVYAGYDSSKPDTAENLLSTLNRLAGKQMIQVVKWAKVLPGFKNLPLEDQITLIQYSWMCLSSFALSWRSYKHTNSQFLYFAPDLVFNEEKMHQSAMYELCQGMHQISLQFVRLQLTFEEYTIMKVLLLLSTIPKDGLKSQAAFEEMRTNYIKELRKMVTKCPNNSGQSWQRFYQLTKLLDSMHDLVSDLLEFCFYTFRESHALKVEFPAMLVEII
Kind of assay: MR reporter gene (transactivation) assay, CHO-Gal4/MR. The class given is cell-based. An excerpt:
To create the CHO-Gal4/GR, CHO-Gal4/PR, and CHO-Gal4/MR reporter cell lines, first CHO cells were stably transfected with a GAL4-UAS-luciferase reporter construct. Then, the LBD of the GR, PR, or MR (GR Gene ID: 2908, PR Gene ID: 5241, MR Gene ID: 4306, respectively) was cloned into pIRES2-EGFP-GAL4 containing the DBD of GAL4 from pFA-AT2, and then co-transfected into the luciferase-reporter construct-containing CHO cells. These reporter cell lines express the respective nuclear hormone receptor LBD-DBD fusion proteins that control luciferase expression of a GAL4-upstream activation sequence (UAS)-luciferase reporter construct, allowing for detection of ligand- or compound-induced transactivation at the GR, PR, or MR by measuring luciferase activity.
Cryo-preserved CHO-Gal4/GR, CHO-Gal4/PR, and CHO-Gal4/MR cells were plated in medium at 7,500 cells/well in 384-well assay plates (25 μL/well), and incubated for 24 h. […] Following a 4-h incubation, cells were lysed and luminescence measured using the EMCCD camera FLIPR®Tetra (Molecular Devices, Silicon Valley, CA, United States).
Transactivation (i.e., gene activation) was expressed as a percentage of the reference agonist activity (Supplementary Material), using Genedata Screener® v15.0.5 software (Basel, Switzerland).
Transactivation was calculated according to this equation: […]

The source of these data is paper PMC11920646 (Frontiers in Pharmacology, 2025).

For the compound `C[C@]12C=CC(=O)C=C1CC[C@@H]1[C@@H]2[C@@H](O)C[C@@]2(C)[C@H]1CC[C@]2(O)C(=O)CO` [Prednisolone], the inhibition at 10 µM in assay [1] lay within 12.1 to 30.7%. For the same compound, the EC50 in assay [2] (4-h incubation) came out at 11.8 ± 3.2 nM. For the same compound, the “MR transactivation, mean activation” value in assay [2] (% of reference agonist fludrocortisone) worked out at 66.4 ± 4.7%.
